Two compounds from patent US20090170899A1, “Stimulators of 5-HT4 receptors and uses thereof” (priority 2004, published 2009) can be followed below.

Test [1] has as its system BrdU-positive cells in the sub-granular zone (SGZ) of the hippocampus. In words: Hippocampal neurogenesis (BrdU-positive cells) after 3-day treatment. It counts as in vivo, rat. The following applies: RS 67333 1.5 mg/kg/day, 3 days. The protocol: A and B: Photomicrographs (magnification: 10× and 100× for the small rectangles) representative of the control and RS 67333 group, respectively. Clusters of positive cells were found in the presence of RS 67333 (small rectangles). RS 67333 was administered through the use of osmotic minipumps, inserted subcutaneously in the region of the back. Rats received intraperitoneal injections of BrdU at the dose of 50 mg/kg twice daily (8 h interval), starting from the day of minipump insertion until day 2 post-surgery.
Drugs and Chemicals. The following compounds were used: GR 125487 sulphamate, prucalopride monohydrochloride, citalopram hydrobromide (gifts from Glaxo, Janssen and Lundbeck laboratories, respectively), RS 67333 hydrochloride (Tocris Cookson Inc., Ellisville, Mo., USA), WAY 100635 hydrochloride (Research Biochemicals, Natick, Mass., USA), pCPA methyl ester hydrochloride, BrdU (Sigma-Aldrich Canada, Oakville, Ontario, Canada). All compounds were diluted in distilled water. All drug dosages refer to the free base. For chronic treatments, prucalopride (2.5 mg/kg/day), RS 67333 (1.5 mg/kg/day) or the vehicle were delivered through osmotic minipumps (Alza, Palo Alto, Calif., USA), inserted subcutaneously in the region of the back under short-duration (≦5 min) halothane anesthesia. […]

A further test has as its system DRN 5-HT neurons. In words: Reversal by acute prucalopride of the inhibition of DRN 5-HT neuron firing rate induced by i.v. SSRIs. It counts as in vivo, rat. The source says:
FIGS. 6A and 6B illustrate the effect of prucalopride on the inhibition of 5-HT neuronal firing rate induced by SSRIs fluxoamine and citalopram.
In FIGS. 6A and 6B, the firing activity of the 5-HT neuron is suppressed following the acute intravenous administration of the antidepressant SSRIs fluvoxamine and citalopram. This suppression of the firing activity is due to the activation of the 5-HT1A autoreceptors, subsequent to the increase of the concentration of endogenous 5-HT, following the blockade of the 5-HT reuptake sites.

On to `CCCCN1CCC(CCC(=O)c2cc(Cl)c(N)cc2OC)CC1` [RS 67333, 1-(4-amino-5-chloro-2-methoxyphenyl)-3-(1-n-burtl-4-piperidinyl)-1-propanone], for which, in test [1], the “size of clusters of BrdU-positive cells” value was 6 to 10 clones. For the same compound, the “density of BrdU-positive cells in the SGZ” value in test [1] (control 44.9±17.2) was 200.2±44.9 per mm^2.
As for `COCCCN1CCC(NC(=O)c2cc(Cl)c(N)c3c2OCC3)CC1` [prucalopride], in the test with DRN 5-HT neurons (acute prucalopride), the “share of 5-HT neurons in which the suppression is reversed” value is given as “about one-half”. In addition, the “effect of prucalopride on SSRI-induced suppression of 5-HT neuron firing” value in the test with DRN 5-HT neurons (acute prucalopride after fluvoxamine or citalopram i.v.) is recorded as “partially reverse”.
